{
  "source": "patent US9301961B2",
  "about": "“Autoimmune and inflammatory disorder therapy” (Katholieke Universiteit Leuven, K.U. Leuven R&D, priority 2011, dated 2016)",
  "key": {"[1]": {"test_system": "cardiac allograft rejection", "test": "Cardiac allograft transplantation model, treatment day -1 to day 30 (Examples 7 and 8)", "assay_type": "in vivo, mice (C57BL/6 donor, Balb/c recipient)", "details": "Example 7", "quoted_text": "Inbreed C57BL/6 H-2b and Balb/c H-2d female mice, 8-10 weeks old, 20-25 g, were used as donor and recipient, respectively. Heterotopic heart transplantation was performed by implanting the donor heart on the neck of recipients using conventional microsurgery techniques. Graft beating was checked daily by inspection and palpation. Cessation of beating indicated graft rejection, which was confirmed by histological examination. Housing and all experimental animal procedures were approved by the Institutional Animal Care and Research Advisory Committee of the KU Leuven."}, "[2]": {"biological_target": "T1, PI3KCB (PI3K p110β/p85α (h)) (Homo sapiens, UniProt P42338)", "T1 construct": "purchased Millipore", "T1 sequence (P42338 whole entry)": "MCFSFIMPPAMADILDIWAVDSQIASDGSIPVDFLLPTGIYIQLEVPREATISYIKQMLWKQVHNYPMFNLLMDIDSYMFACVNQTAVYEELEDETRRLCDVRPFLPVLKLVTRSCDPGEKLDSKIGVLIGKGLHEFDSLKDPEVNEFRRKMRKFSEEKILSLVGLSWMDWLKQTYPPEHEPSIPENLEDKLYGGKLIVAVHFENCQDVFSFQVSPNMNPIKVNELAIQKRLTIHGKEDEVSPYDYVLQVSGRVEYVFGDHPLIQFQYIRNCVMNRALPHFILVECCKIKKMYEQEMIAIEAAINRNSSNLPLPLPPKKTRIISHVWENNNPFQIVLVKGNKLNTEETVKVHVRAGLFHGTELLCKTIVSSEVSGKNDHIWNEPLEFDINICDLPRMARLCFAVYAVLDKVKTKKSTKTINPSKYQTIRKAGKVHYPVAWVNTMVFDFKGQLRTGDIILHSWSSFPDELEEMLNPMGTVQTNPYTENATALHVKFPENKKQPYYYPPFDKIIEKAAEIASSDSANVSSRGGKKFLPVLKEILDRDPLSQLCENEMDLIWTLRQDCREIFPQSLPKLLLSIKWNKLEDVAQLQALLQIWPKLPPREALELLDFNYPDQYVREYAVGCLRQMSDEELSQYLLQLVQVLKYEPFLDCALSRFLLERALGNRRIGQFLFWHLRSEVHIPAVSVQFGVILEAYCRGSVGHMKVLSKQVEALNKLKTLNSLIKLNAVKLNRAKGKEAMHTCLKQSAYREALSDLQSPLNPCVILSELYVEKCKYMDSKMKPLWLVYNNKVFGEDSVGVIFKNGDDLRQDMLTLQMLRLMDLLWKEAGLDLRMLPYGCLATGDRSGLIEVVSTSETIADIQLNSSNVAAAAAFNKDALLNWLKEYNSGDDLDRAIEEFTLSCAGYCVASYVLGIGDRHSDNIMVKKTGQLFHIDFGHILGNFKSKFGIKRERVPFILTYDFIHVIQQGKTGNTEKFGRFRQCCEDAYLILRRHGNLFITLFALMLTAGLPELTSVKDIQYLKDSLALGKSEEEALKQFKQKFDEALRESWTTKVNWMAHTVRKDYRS", "T1 sequence (P27986 whole entry partner)": "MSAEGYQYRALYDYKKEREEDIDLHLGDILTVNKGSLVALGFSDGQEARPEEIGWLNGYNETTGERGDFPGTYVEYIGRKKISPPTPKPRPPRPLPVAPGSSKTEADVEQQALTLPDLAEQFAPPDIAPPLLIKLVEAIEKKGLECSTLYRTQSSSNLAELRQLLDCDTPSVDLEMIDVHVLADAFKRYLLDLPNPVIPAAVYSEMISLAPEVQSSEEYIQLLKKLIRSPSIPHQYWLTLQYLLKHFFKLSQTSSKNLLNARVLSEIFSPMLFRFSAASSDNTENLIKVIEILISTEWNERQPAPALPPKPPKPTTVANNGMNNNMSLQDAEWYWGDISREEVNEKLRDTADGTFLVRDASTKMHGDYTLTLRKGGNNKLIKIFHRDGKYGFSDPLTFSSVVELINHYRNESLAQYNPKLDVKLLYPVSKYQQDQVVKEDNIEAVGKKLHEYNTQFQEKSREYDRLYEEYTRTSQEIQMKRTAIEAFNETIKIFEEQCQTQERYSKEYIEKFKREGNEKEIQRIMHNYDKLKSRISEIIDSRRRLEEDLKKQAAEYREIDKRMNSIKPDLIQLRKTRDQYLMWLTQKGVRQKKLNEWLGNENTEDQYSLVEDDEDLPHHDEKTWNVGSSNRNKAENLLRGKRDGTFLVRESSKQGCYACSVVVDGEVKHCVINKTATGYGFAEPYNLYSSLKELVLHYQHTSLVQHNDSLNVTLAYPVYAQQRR", "test": "Commercial kinase activity assay (Millipore, HTRF)", "assay_type": "biochemical", "details": "10 μM test compound", "method": "LOK (h) was incubated with 8 mM MOPS pH 7.0, 0.2 mM EDTA, 250 μM […], 10 mM MgAcetate and [γ-^33P-ATP] (specific activity approx. 500 cpm/pmol, concentration as required). The reaction was initiated by the addition of the MgATP mix. After incubation for 40 minutes at room temperature, the reaction was stopped by the addition of 3% phosphoric acid solution. 10 μL of the reaction was then spotted onto a P30 filtermat and washed three times for 5 minutes in 75 mM phosphoric acid and once in methanol prior to drying and scintillation counting. PI3K p110β/p85α (h) PI3K (p110β/p85α) (h) was incubated in assay buffer containing 10 μM phosphatidylinositol-4,5-bisphosphate and MgATP (concentration as required). The reaction was initiated by the addition of the MgATP mix. After incubation for 30 minutes at room temperature, the reaction was stopped by the addition of stop solution containing EDTA and biotinylated phosphatidylinositol-3,4,5-trisphosphate. Finally, detection buffer was added, which contains europium-labelled anti-GST monoclonal antibody, GST-tagged GRP1 PH domain and streptavidinallophycocyanin. The plate was then read in time-resolved fluorescence mode and the homogenous time-resolved fluorescence (HTRF®) signal determined according to the formula HTRF=10000×(Em665nm/Em620 nm). […]"}, "PAK1": {"biological_target": "T2, PAK1 (Homo sapiens, UniProt Q13153)", "T2 construct": "made in house; host or cells: E. coli BL21-derived host (T7 phage) or HEK-293", "T2 sequence (Q13153 whole entry)": "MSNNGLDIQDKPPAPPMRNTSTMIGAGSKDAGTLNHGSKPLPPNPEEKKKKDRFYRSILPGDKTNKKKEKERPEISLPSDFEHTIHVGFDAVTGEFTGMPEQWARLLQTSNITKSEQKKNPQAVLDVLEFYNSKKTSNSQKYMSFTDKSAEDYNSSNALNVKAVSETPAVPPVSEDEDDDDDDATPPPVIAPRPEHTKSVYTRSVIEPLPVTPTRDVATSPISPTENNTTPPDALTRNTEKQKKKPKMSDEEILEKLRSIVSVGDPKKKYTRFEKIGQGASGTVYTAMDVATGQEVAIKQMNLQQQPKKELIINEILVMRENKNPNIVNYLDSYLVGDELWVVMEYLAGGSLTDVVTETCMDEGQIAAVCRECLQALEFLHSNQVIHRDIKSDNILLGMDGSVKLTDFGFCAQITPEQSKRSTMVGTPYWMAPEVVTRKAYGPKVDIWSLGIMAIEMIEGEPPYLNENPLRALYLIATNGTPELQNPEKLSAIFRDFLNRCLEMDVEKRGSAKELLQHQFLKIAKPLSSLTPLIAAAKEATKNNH", "test": "Kinase-tagged phage competition binding assay (qPCR), 382-kinase library"}, "[3]": {"test_system": "Peripheral blood mononuclear cells (PBMCs) mixed with mitomycin C treated RPMI1788 cells", "test": "Mixed lymphocyte reaction (MLR) assay, 3H-thymidine uptake", "from_the_text": "In the MLR assay PBMCs from two individuals are mixed together in tissue culture for several days. […] In the one-way MLR test, the mononuclear cells from one of the individuals are inactivated (usually by treatment with mitomycin C or irradiation), thereby allowing only the untreated remaining population of mononuclear cells, such as lymphocytes, to proliferate in response to foreign histocompatibility antigens.\nThe immunosuppressive effect of test compounds was also investigated using MLR assays. Peripheral blood mononuclear cells (PBMCs) were isolated from heparinized blood of healthy donors by density-gradient centrifugation over Lymphoprep. […] RPMI1788 cells were treated with 30 μg/mL mitomycin C for 20 min at 37° C., washed four times with medium, and finally suspended in complete RPMI medium to a density of 0.45×10^6 cells/mL. An amount of 100 μL of each cell suspension was mixed with 20 μL of diluted compound. The mixed cells were cultured at 37° C. for 6 days in 5% CO2. […] Thereafter, the cells were harvested on glass filter paper and the counts per minute (cpm) determined in a liquid scintillation counter."}, "PI4KA (PI4K alpha)": {"biological_target": "T3, PI4KA (PI4K alpha) (Homo sapiens, UniProt P42356)", "T3 construct": "purchased Invitrogen", "T3 sequence (P42356 whole entry)": "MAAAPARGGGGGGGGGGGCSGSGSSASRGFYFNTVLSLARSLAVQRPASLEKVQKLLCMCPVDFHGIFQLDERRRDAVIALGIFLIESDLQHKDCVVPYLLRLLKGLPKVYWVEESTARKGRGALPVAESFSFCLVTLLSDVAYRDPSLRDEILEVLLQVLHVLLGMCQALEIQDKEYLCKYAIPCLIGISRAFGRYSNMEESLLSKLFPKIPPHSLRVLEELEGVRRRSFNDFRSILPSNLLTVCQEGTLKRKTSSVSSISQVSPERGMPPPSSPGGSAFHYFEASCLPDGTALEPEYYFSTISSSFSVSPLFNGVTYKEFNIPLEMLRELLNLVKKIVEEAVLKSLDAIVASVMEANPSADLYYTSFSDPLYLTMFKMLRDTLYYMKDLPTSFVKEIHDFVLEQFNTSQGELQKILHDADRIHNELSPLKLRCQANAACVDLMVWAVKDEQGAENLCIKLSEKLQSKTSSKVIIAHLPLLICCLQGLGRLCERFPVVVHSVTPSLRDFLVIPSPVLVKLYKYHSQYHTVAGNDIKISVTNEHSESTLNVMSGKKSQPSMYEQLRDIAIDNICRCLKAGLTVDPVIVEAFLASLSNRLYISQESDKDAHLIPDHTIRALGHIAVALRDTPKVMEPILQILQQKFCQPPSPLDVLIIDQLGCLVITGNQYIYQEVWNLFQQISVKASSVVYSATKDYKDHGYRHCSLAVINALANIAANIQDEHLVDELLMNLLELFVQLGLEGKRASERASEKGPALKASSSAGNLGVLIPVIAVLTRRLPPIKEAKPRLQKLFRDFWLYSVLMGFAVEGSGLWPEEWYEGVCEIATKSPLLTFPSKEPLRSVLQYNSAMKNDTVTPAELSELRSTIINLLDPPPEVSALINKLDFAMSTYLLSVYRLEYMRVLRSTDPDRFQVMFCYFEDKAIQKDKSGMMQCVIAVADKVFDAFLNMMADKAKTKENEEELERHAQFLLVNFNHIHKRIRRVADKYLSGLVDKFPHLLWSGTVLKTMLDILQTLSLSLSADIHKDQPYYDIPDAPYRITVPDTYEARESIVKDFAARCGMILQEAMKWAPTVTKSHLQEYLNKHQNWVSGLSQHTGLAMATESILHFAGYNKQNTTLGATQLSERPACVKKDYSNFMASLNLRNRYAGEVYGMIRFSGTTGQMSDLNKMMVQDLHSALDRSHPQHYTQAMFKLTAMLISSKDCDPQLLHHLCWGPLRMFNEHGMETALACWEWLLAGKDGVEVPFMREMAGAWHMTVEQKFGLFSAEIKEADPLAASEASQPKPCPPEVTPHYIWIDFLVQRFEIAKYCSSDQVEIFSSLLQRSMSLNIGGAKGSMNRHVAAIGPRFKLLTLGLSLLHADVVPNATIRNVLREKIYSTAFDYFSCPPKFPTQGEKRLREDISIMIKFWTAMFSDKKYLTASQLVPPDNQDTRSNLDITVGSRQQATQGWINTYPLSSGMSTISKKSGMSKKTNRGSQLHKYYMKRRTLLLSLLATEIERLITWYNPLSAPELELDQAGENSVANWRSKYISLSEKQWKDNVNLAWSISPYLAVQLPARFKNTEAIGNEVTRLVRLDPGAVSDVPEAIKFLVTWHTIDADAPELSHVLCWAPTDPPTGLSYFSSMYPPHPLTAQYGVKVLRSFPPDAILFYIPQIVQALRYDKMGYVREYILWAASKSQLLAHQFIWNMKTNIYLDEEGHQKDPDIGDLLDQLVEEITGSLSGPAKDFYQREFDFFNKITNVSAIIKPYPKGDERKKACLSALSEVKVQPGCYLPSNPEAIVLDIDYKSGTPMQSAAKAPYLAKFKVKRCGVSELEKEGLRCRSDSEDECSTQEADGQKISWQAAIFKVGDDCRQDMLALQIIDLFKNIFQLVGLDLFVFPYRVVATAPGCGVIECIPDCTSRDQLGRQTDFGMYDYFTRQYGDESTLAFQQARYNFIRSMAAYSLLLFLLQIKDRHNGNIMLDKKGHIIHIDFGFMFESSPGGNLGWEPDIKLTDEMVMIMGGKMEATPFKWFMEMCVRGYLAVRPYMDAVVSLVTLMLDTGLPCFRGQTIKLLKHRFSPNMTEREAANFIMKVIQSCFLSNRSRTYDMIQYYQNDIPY", "test": "Commercial kinase activity assay (Invitrogen, ADP TR-FRET)", "assay_type": "biochemical", "details": "10 μM test compound"}},
  "note": "Where two headings read alike, the source gives them in different places.",
  "data": [
    {"compound": "Nc1nc(N2CCN(C(=O)COc3ccc(Cl)cc3)CC2)c2nc(-c3cccnc3)sc2n1", "note": "[formula (1), 5-amino-7-[4-(4-chlorophenoxyacetyl)piperazin-1-yl]-2-(pyridin-3-yl)thiazolo[5,4-d]pyrimidine]", "values": [
      {"measurement": "grafts surviving as long as treatment continued", "setting": "[1]; 40 mg/kg daily gavage", "value": "3 out of 4"},
      {"measurement": "graft function after withdrawal of the treatment", "setting": "[1]; 40 mg/kg daily gavage until day 30", "value": "continued beating after withdrawal of the treatment (up to 60 days)"},
      {"measurement": "Kinase activity", "setting": "[2]", "value": "100 percentage of control"},
      {"measurement": "inhibition at 10 µM", "setting": "PAK1; 10 μM compound, read-out: % Inhibition of substrate binding", "value": 54, "unit": "%"},
      {"measurement": "IC50", "setting": "PAK1; stated for the 8 kinases of Table 1", "value": "< 10000", "unit": "nM"},
      {"measurement": "IC50", "setting": "[3]; RPMI-1788, 144 h, read-out: IC50 MLR, 6 days culture", "value": "< 50", "unit": "nM"},
      {"measurement": "IC50", "setting": "[3]; read-out: IC50 MLR, 6 days culture", "value": 30, "unit": "nM"},
      {"measurement": "Kinase activity", "setting": "PI4KA (PI4K alpha)", "value": "99 percentage of control"}
    ]}
  ]
}
